Experiments:
sLox-1 shedding by cells = settings: previous studies; cited from earlier work
endothelial cells = settings: other studies; cited from earlier work
HPAEC = experiment: TER assay of endothelial barrier function; assay type: cell-based, human
Text: In FIG. 28 TER assay with HPAEC treated with 0.2 U/mL thrombin, 10% fresh serum, 10% cultured clot serum or 10% LPS/cultured clot serum produced by peripheral blood collected from 4 healthy donors (N=2 tests per condition for donors 1 and 2 and N=1 test per condition for combined samples from donors 3 and 4). Mean ±standard deviation (N=4 thrombin and N=5 for all other conditions).

[1] = test system: HEK293 human Lox-1 overexpression system; experiment: sLox-1 production in HEK293 human Lox-1 overexpression system; assay type: cell-based
Text: Thrombin, for example, had no effect on sLox-1 production in our HEK293 human Lox-1 overexpression system. The enzymes responsible for sLox-1 shedding are under intense debate and not yet identified in neutrophils. Close scrutiny of PR3 leads hypothesize it is a novel neutrophil-specific sheddase of sLox-1. PR3 is harbored in azurophilic and secretory granules of neutrophils. Upon release, PR3 associates with the neutrophil cell surface via CD177 in cholesterol-rich lipid rafts where Lox-1 is located. PR3 activity is believed to preserve endothelial barrier function during neutrophil extravasation. […] One study used trypsin digestion during sample preparation. The proposed sLox-1 cleavage motif is missing an aliphatic P1′ residue used by ADAM10 and ADAM17 to recognize a substrate. By contrast, the human Lox-1 cleavage region (QISA87R88QQA) has a very striking match with the PR3 cleavage site in IL-8 (AVLPRSA↓RKEL). […] (Table 5). The published cleavage sites for sLox-1 in bovine and human produce a non-conserved sLox-1 N-terminus, with NH2-Glutamine for human and NH2-Serine for bovine (Table 5). […] Potentially harmful bystander elastase activity of PR3 [73] could be suppressed by high levels of alpha-1 antitrypsin or ceruloplasmin that we detected by LC-MS in plasma and serum.

cultured blood clots = experiment: sLox-1 shedding into cultured clot serum (ELISA); assay type: cell-based, human; settings: cultured clot 4 h, 37° C., vs cultured clot without additive, 100 ng/mL LPS, 10 mM bGP
Text: This is the enabling data for beta glycerol phosphate and PMA treated blood clots.
Parallel analysis of IL-8/CXCL8 in the cultured clot serum can be used to document test article cytocompatibility. The absence of IL6 in donor fresh blood can be used to verify there is no sepsis or bacteremia, and lack of IL-6 induction in the cultured clot serum can be used to identify sterile inflammation and test article purity (lack of endotoxin response).
In an embodiment, cultured clots were spiked with LPS by injecting an LPS solution into the vacutainer tube immediately after blood collection and before clot formation. These LPS/cultured clots shed even more sLox-1 into the serum than the paired cultured clots without LPS, in line with the known effect of LPS and downstream mediators (TNF, IL1A) in stimulating Lox-1 expression. (FIG. 2).
In an embodiment, a precision medicine tool is developed that detects Lox-1 induction in an ex vivo thrombus and shedding of soluble Lox-1 (sLox-1) into the serum. The tool consists of a red vacutainer tube with as little as 0.5 mL and more ideally 3 or 4 mL of peripheral whole venous blood, that is placed for 4 hours at 37° C.
The optimized cultured clot system involves placing a red cap vacutainer tube with anionic clot-activator at 37° C. for 4 hours after which serum may be collected. Serum contains a mixture of barrier-reducing and barrier-enhancing factors.

cultured clots [2] = experiment: RT-PCR of transcript levels in cultured clots; assay type: cell-based, human; settings: cultured clot 4 h, 37° C.
Description: Lanes: 1. Fresh whole blood (PAXgene); 2. Fresh blood clot (45 min, RT); 3. Cultured clot (4 h, 37° C.); 4. LPS/cultured clot (4 h, 37° C.); 5. Beta-glycerol phosphate cultured clot (4 h, 37° C.); 6. Cultured heparin blood (4 h, 37° C.). OLR1 was induced in all cultured clots (4) and in all cultured clots+LPS ([…]).

cultured clots [3] = experiment: CXCL8/IL-8 and IL-6 protein in cultured clot serum; assay type: cell-based, human; settings: cultured clot 4 h, 37° C.; for CXCL8/IL-8 protein in cultured clot serum: +100 ng/mL LPS or +10 mM bGP
Description: [Key: FB: fresh blood plasma, cC: cultured clot (4 h, 37° C.), Norm: cultured clot under Normoxia, Hyp: cultured clot under Hypoxia, Hep: heparin blood culture (4 h, 37° C.), +LPS: +100 ng/mL lipopolysaccharide, +bGP: +10 mM disodium beta glycerol phosphate].

cultured clots [4] = experiment: Neutrophil elastase (NE) release to cultured clot serum; assay type: cell-based, human; settings: cultured clot 4 h 37° C.; +10 mM bGP
Description: FB=fresh blood; FC=fresh clot ([…] RT incubation); cC=cultured clot (4 h 37° C.; +LPS=cC+100 ng/mL LPS; +bGP=cC+10 mM bGP. This is enabling data for using the cultured clot system to screen drugs for the ability to inhibit neutrophil degranulation in an assay that uses minimally modified whole blood, by measuring the level of NE and/or PR3, or other granule factors (myeloperoxidase, cathepsin G, elastase, metalloproteinases, defensins) in treated versus untreated cultured clot serum.

[5] = test system: heparinized anticoagulated blood; experiment: Reversal of heparin anticoagulation to form viable cultured blood clots; assay type: cell-based; settings: 4 hours at 37° C.; chitosan 99% DDA, 3 kDa or 10 kDa
Text: The degree of deacetylation is preferably from 90% to 100% and the molecular weight is preferably at least 3,000 Da and at most 500,000 Da.

O=S(=O)(F)Cc1ccccc1 [PMSF, phenylmethylsulfonyl fluoride]
sLox-1 shedding by exposed cells (sLox-1 shedding by cells): reduced sLox-1 shedding

CC(C)c1nc(N(C)S(C)(=O)=O)nc(-c2ccc(F)cc2)c1/C=C/[C@@H](O)C[C@@H](O)CC(=O)O [rosuvastatin]
Lox-1 expression in endothelial cells (endothelial cells): inhibited Lox-1 expression

thrombin
effect on endothelial barrier function (HPAEC; 0.6 hours post-stimulation, vs control, fresh serum): transient loss of barrier function
mean normalized resistance at 36 min (HPAEC; HPAEC, 10% serum or 0.2 U/mL thrombin, 36 min, mean ± SD): 0.48±0.03
sLox-1 production [1]: no effect

lipopolysaccharide [LPS]
sLox-1 shedding into cultured clot serum (cultured blood clots): increased
IL6 expression (RT-PCR) (cultured clots [2]): induced
IL-6 protein in cultured clot serum (cultured clots [3]; +100 ng/mL LPS): elevated
CXCL8/IL-8 protein in cultured clot serum (cultured clots [3]): elevated

CC(C)C[C@H](CC(=O)NO)C(=O)N[C@@H](Cc1ccc2ccccc2c1)C(=O)N[C@@H](C)C(=O)NCCN [TAPI-1]
sLox-1 shedding by exposed cells (sLox-1 shedding by cells): reduced sLox-1 shedding

CCCCCCCCCCCCCC(=O)O[C@@H]1[C@@H](C)[C@@]2(O)[C@@H](C=C(CO)C[C@]3(O)C(=O)C(C)=C[C@@H]23)[C@@H]2C(C)(C)[C@]12OC(C)=O [PMA, phorbol myristate acetate]
sLox-1 shedding into cultured clot serum (cultured blood clots): enhanced

O=P([O-])([O-])OC(CO)CO.[Na+].[Na+] [bGP, disodium beta glycerol phosphate]
sLox-1 shedding into cultured clot serum (cultured blood clots): suppressed
sLox-1 shedding into cultured clot serum (cultured blood clots; listed as phosphatase inhibitor): inhibited
CXCL8/IL-8 expression (RT-PCR) (cultured clots [2]; 10 mM): without suppressing
TNF expression (RT-PCR) (cultured clots [2]; 10 mM): specifically suppressed
CXCL8/IL-8 protein in cultured clot serum (cultured clots [3]): does not alter
neutrophil elastase (NE) release to serum (cultured clots [4]): inhibited

protamine
reversal of heparin anticoagulation, forming viable cultured blood clots [5]: reverse heparin anticoagulation
